Experimental data published in ChEMBL document CHEMBL3885861, “Open TG-GATES”.

Species: Rattus norvegicus
Assay: Open TG-GATES - Regimen: Daily Repeat
Format: toxicity, organism-based, Sprague-Dawley
Parameters: regimen Daily Repeat, gender Male, age 6 weeks
Conditions: in vivo, po, 0 mg/kg, […], route gavage, dose level Control; for KIDNEY_L / KIDNEY_R / KIDNEY_TOTAL: tissue Kidney; for LIVER: tissue Liver; for A/G / ALP / ALT / AST / BUN / CRE / Ca / Cl / DBIL / GLC / IP / K / LDH / Na / PL / RALB / TBIL / TC / TG / TP / gamma-GTP: tissue Plasma

COC1=CC(=O)C[C@@H](C)[C@]12Oc1c(Cl)c(OC)cc(OC)c1C2=O [GRISEOFULVIN]
Lym (tissue Blood, time 28 day): 82.4% | MCH (tissue Blood, time 28 day): 19.7 pg | MCHC (tissue Blood, time 28 day): 34% | MCV (tissue Blood, time 28 day): 58 fL | Mono (tissue Blood, time 28 day): 2% | Neu (tissue Blood, time 28 day): 14% | PT (tissue Blood, time 28 day): 12.3 s | Plat (tissue Blood, time 28 day): 115.6 x10_4/uL | RBC (tissue Blood, time 28 day): 774.2 x10_4/ul | Ret (tissue Blood, time 28 day): 2.7% | WBC (tissue Blood, time 28 day): 130.8 x10_2/uL | KIDNEY_L (time 7 day): 1.1 g | KIDNEY_R (time 7 day): 1.2 g | KIDNEY_TOTAL (time 7 day): 2.3 g | KIDNEY_L (time 14 day): 1.2 g | KIDNEY_R (time 14 day): 1.2 g | KIDNEY_TOTAL (time 14 day): 2.4 g | KIDNEY_L (time 28 day): 1.4 g | KIDNEY_R (time 28 day): 1.4 g | KIDNEY_TOTAL (time 28 day): 2.8 g | LIVER (time 7 day): 12.6 g | LIVER (time 14 day): 13.6 g | LIVER (time 28 day): 16.1 g | A/G (time 7 day): 1.6 | ALP (time 7 day): 944.2 IU/L | ALT (time 7 day): 41.2 IU/L | AST (time 7 day): 81 IU/L | BUN (time 7 day): 14.6 mg/dL | CRE (time 7 day): 0.4 mg/dL | Ca (time 7 day): 10.8 mg/dL | Cl (time 7 day): 103.4 meq/L | DBIL (time 7 day): 0.1 mg/dL | GLC (time 7 day): 206.8 mg/dL | IP (time 7 day): 7.4 mg/dL | K (time 7 day): 3.9 meq/L | LDH (time 7 day): 155.4 IU/L | Na (time 7 day): 142.2 meq/L | PL (time 7 day): 146.6 mg/dL | RALB (time 7 day): 3.5 g/dL | TBIL (time 7 day): 0.2 mg/dL | TC (time 7 day): 75.8 mg/dL | TG (time 7 day): 112.2 mg/dL | TP (time 7 day): 5.8 g/dL | gamma-GTP (time 7 day): 1.2 IU/L | A/G (time 14 day): 1.5 | ALP (time 14 day): 820.2 IU/L | ALT (time 14 day): 32.8 IU/L | AST (time 14 day): 55.8 IU/L | BUN (time 14 day): 15 mg/dL | CRE (time 14 day): 0.5 mg/dL | Ca (time 14 day): 10.6 mg/dL | Cl (time 14 day): 102.4 meq/L | DBIL (time 14 day): 0.1 mg/dL | GLC (time 14 day): 236 mg/dL | IP (time 14 day): 7.3 mg/dL | K (time 14 day): 4.2 meq/L | LDH (time 14 day): 130.6 IU/L | Na (time 14 day): 139.8 meq/L | PL (time 14 day): 145.8 mg/dL | RALB (time 14 day): 3.5 g/dL | TBIL (time 14 day): 0.2 mg/dL | TC (time 14 day): 73.6 mg/dL | TG (time 14 day): 107.2 mg/dL | TP (time 14 day): 5.8 g/dL | gamma-GTP (time 14 day): 0.8 IU/L | A/G (time 28 day): 1.5 | ALP (time 28 day): 889.4 IU/L | ALT (time 28 day): 36.4 IU/L | AST (time 28 day): 56.8 IU/L | BUN (time 28 day): 15.2 mg/dL | CRE (time 28 day): 0.5 mg/dL | Ca (time 28 day): 10.5 mg/dL | Cl (time 28 day): 102.8 meq/L | DBIL (time 28 day): 0.078 mg/dL | GLC (time 28 day): 240.2 mg/dL | IP (time 28 day): 7.2 mg/dL | K (time 28 day): 3.6 meq/L | LDH (time 28 day): 155.8 IU/L | Na (time 28 day): 141.2 meq/L | PL (time 28 day): 132.8 mg/dL | RALB (time 28 day): 3.5 g/dL | TBIL (time 28 day): 0.2 mg/dL | TC (time 28 day): 72.6 mg/dL | TG (time 28 day): 65.4 mg/dL | TP (time 28 day): 6 g/dL | gamma-GTP (time 28 day): 1.2 IU/L
